The record followed here is ChEMBL document CHEMBL3507680, “University of Dundee, Gates Library screen for HepG2 cell viability”.

The structures appear in SMILES notation.

The nature of this data set: Human HepG2 cell viability assay in 384 well format. The format is toxicity, cell-based. Set-up: dose 125 nL, time 70.5 hour; concentration not given beside the values. The following applies: HepG2 cells, read-out: Inhibition.
On to `c1ccc2c(c1)CC(N1CCCN(Cc3cccc4nonc34)CC1)C2`, for which the cytotoxicity at 70.5 h is 21.6%. Under `N#CC1(C(=O)N2C[C@H]3CC[C@@H]2CN(Cc2ccncc2)C3)CCOCC1` stands -23.5%; under `N#Cc1ccc(C(=O)N2C[C@@H](CN3CCCC3)C[C@H](CO)C2)cc1`, -2.46%. `CCOCCC(=O)N(C)Cc1noc(C(C)C)n1`: the cytotoxicity at 70.5 h is 24.4%. Under `CCN(CC1CCOCC1)C(=O)Cn1ccccc1=O` stands -9.29%; under `CNc1nc2c(c(C(=O)N3CCCC3)n1)CN(Cc1ccco1)CC2`, -3.76%. Under `CNc1cc(C(=O)N2CCCCC2CCn2ccnc2C)ccn1` (stereo unspecified) stands -2.8%; under `O=C1CCCN1CCCC(=O)N1CCC2(CC1)[C@H](O)C[C@@H]2O`, -0.254%. Under `O=C1CC(C(=O)O)C2(CCN(C(=O)NCc3ccc(Cl)cc3)CC2)N1` (stereo unspecified) stands -2.42%; under `CO[C@H]1C[C@@H](O)C12CCN(C(=O)CCCOc1ccccc1)CC2`, -8.27%; under `CCN(Cc1ccncc1)C(=O)CCn1c(C)cc2ccccc21`, -3.9%. With `CN(CCc1ccccn1)c1cc(N2CCCCC2)ncn1`, the cytotoxicity at 70.5 h was -6.31%. Regarding `COc1ccc(Oc2cccc(C#N)n2)cc1CN1CCCC1`, the cytotoxicity at 70.5 h is -1.4%. The result for `OC1(CNCc2csc(-c3ncccn3)n2)CCCNC1` (stereo unspecified) reads -5.29%; that for `Cc1ccccc1OCC1CCCN(C(=O)CN(C)C2CCNCC2)C1` (stereo unspecified), -4.15%. The result for `Cc1cc(NC(=O)CNCc2csc(-c3ncccn3)n2)ccc1Cl` reads -14.6%; that for `COc1ccccc1OCc1cc(C(=O)N2CCN(C(C)=O)CC2)n[nH]1`, -5.97%; that for `O=C1CC(NCc2ccccn2)CN1CCc1ccc(F)cc1` (stereo unspecified), 20.5%. In the case of `COCc1nc(CNC2CCC3(CCNCC3)CC2)no1`, the cytotoxicity at 70.5 h is -8.94%. Under `Cc1ncc(CN2CCCC2c2ccc(C(=O)NCc3ccoc3)s2)s1` (stereo unspecified) stands -0.861%. `Cc1ccc2[nH]nc(C(=O)NCC3CCN(Cc4c[nH]cn4)C3)c2c1` (stereo unspecified): the cytotoxicity at 70.5 h was -5.7%. Under `O=C(CC1CNCCO1)N1CCC(c2cc(N3CCCC3)ncn2)CC1` (stereo unspecified) stands 12.3%. The result for `CCCOC1CCCN(C(=O)c2ccc(S(N)(=O)=O)cc2)C1` (stereo unspecified) reads -3.49%. Under `O=C(NCc1cc(N2CCOCC2)ncn1)c1cccc(CO)n1` stands 5.15%; under `COc1ccc(CC2(C(=O)O)CCN(c3nc(C)ncc3C)CC2)cc1`, -10.8%. `Cc1nc2c(NCC(C)N(C)c3ccccc3)ncnc2o1` (stereo unspecified): the cytotoxicity at 70.5 h was -5.13%. The result for `O=C1N(Cc2ccc(F)c(F)c2)CCCC1(O)CNCc1ncc[nH]1` (stereo unspecified) reads -1.39%; that for `COCCc1noc(CNC2CCCC(C)(C)C2)n1` (stereo unspecified), -4.63%; that for `Cc1c(Cn2ccnc2-c2cc(CN(C)C)cs2)cnn1C`, 3.72%. Under `Cc1csc2ncnc(N3CCC(Cn4cc(C(C)(C)N)nn4)CC3)c12` stands 2.54%. For the compound `CN1CC2(CCCN(c3nc(N)nc4c3CCCC4)C2)OC1=O` (stereo unspecified), the cytotoxicity at 70.5 h is -10.1%. As for `CCCn1ncc(C(=O)N(C)Cc2cc(C3CC3)[nH]n2)c1C`, the cytotoxicity at 70.5 h was found to be 0.995%. Under `Cc1nc(N[C@H]2COC[C@@H]2N2CCCC2)c2cnn(C)c2n1` stands -8.31%; under `Cc1nc(N)sc1C(=O)N1CCC(C(O)Cc2ccccc2)CC1` (stereo unspecified), -7.21%.

In the case of `CC(C)n1cnnc1CN(C)C(=O)C1CCCN(CC(N)=O)C1` (stereo unspecified), the cytotoxicity at 70.5 h is -10.5%. Under `CCC(C)N(Cc1sccc1C)C(=O)c1cc(N)ccn1` (stereo unspecified) stands -11.9%; under `CC(C)c1nc(CN(C)Cc2cnc(N3CCOCC3)nc2)no1`, -6.44%; under `CN(Cc1ccccc1)CC(O)Cn1cnc2sccc2c1=O` (stereo unspecified), -8.79%. Under `CCS(=O)(=O)N1CCC(NC(=O)c2ccccc2O)CC1` stands -6.17%. Under `Cc1cc(C(=O)O)cc(S(=O)(=O)Nc2ccc3c(c2)OCCO3)c1C` stands -3.8%; under `CCS(=O)(=O)N1CCC(NC(=O)c2cc3ccccc3cc2O)CC1`, 12.9%; under `CN(Cc1ccccc1)CC(O)Cn1cnc2ccc(Br)cc2c1=O` (stereo unspecified), -5.18%. Regarding `CCS(=O)(=O)N1CCC(NC(=O)c2cc(C)ccc2O)CC1`, the cytotoxicity at 70.5 h is -5.66%. The result for `CC(C#N)CN(C)Cc1nc2c(cnn2C)c(=O)[nH]1` (stereo unspecified) reads -7.12%; that for `CC(C)CCN(CCC(C)C)Cc1nc2c(cnn2C)c(=O)[nH]1`, 2.1%; that for `CN(Cc1ccccc1)CC(O)Cn1cnc2cc(F)ccc2c1=O` (stereo unspecified), -7.28%.

On to `Cc1ccccc1OCCCC(=O)NCC1CN(C)CCO1` (stereo unspecified), for which the cytotoxicity at 70.5 h is -1.6%. Under `N#Cc1ccc(S(=O)(=O)NC(=O)COc2ccc3c(c2)CCC3)cc1` stands -1.54%; under `CC(C)CCN(C(=O)c1nc(S(C)(=O)=O)n2ccccc12)C1CC1`, -1.14%. Consider `Cc1ccc(C(=O)N2CCCC(n3cccn3)C2)cc1S(C)(=O)=O` (stereo unspecified), for which the cytotoxicity at 70.5 h came out at 0.0611%. In the case of `Cc1ccc2oc(C(=O)N3CCCC(n4cccn4)C3)cc2n1` (stereo unspecified), the cytotoxicity at 70.5 h stood at 21.1%. Under `Cc1cnn(C2CCCN(C(=O)c3cc4nc(C)ccc4o3)C2)c1` (stereo unspecified) stands -5.06%. For `c1ccc(-c2nc(CNC3CCc4ncnn4C3)cs2)cc1` (stereo unspecified), the cytotoxicity at 70.5 h stood at 0.00764%. For `Cc1nnc2n1CCN(C(C(=O)NC(C)C)c1ccccc1)C2` (stereo unspecified), the cytotoxicity at 70.5 h was 19.5%. Turning to `CCNc1cc2c(nn1)CCN(C(=O)Cc1ccc(C)nc1)C2`, the cytotoxicity at 70.5 h was -6.5%. The result for `COCc1nc(C(=O)NS(=O)(=O)c2c(C)c(C)cc(C)c2C)cs1` reads 2.47%; that for `Cc1ccc2oc(C(=O)N3CCCC(n4ccnc4C)C3)cc2n1` (stereo unspecified), 0.879%; that for `O=C(CCCOc1ccccc1)N1CCCC(n2cncn2)C1` (stereo unspecified), 2.63%. The result for `N#Cc1ccc(CS(=O)(=O)NC(=O)COc2ccc3c(c2)CCC3)cc1` reads -5.23%; that for `COCc1nc(C(=O)NS(=O)(=O)c2ccc(F)cc2F)cs1`, 0.492%.

For the compound `Cn1cc(-c2nc(CN3CCc4c(ncn4C)C3)cs2)cn1`, the cytotoxicity at 70.5 h came out at 31%.

`CCN(CC1CCOC1)C(=O)Nc1ccc(N2CCOCC2)nc1` (stereo unspecified): the cytotoxicity at 70.5 h came to 18.9%. For the compound `O=C(c1cc(C2CC2)on1)N1CCCC(n2cccn2)C1` (stereo unspecified), the cytotoxicity at 70.5 h was determined as 23.8%. The result for `Cn1cnc2c1CCN(Cc1csc(-c3ccccc3)n1)C2` reads 24.1%.

In the case of `NC(=O)C1CCN(C(=O)c2ccc(OCc3cscn3)cc2)CC1`, the cytotoxicity at 70.5 h was found to be 55.1%. For the compound `O=C(c1cccc(OCc2cscn2)c1)N1CCOCC1`, the cytotoxicity at 70.5 h worked out at 0.0866%. Under `CC(=O)N1CCC(NC(=O)N(C)Cc2c(C)noc2C)CC1` stands -8.21%; under `O=C(NCCn1ccnc1)N1CCCC1c1ccncc1` (stereo unspecified), 1.26%; under `Cc1noc(C2CCCN(C(=O)CCNc3ncccn3)C2)n1` (stereo unspecified), -13.2%. Regarding `Cc1cnn(CC(=O)NCC2CCN(c3cc(Cl)ccc3C)C2)c1` (stereo unspecified), the cytotoxicity at 70.5 h is 6.3%. Under `COc1ccc(CNCc2ccnc(N3CCCC3)c2)c(OC)c1` stands -1.69%.
